Among the data in patent publication US20240360082A1, “SUBSTITUTED PYRIDONE COMPOUNDS USEFUL TO TREAT ORTH[…]” (priority 2021, published 2024) are IC50 values, retold here.

Chain of influenza A virus minigenome (PB2, PB1, PA, NP proteins) (P04665 whole entry): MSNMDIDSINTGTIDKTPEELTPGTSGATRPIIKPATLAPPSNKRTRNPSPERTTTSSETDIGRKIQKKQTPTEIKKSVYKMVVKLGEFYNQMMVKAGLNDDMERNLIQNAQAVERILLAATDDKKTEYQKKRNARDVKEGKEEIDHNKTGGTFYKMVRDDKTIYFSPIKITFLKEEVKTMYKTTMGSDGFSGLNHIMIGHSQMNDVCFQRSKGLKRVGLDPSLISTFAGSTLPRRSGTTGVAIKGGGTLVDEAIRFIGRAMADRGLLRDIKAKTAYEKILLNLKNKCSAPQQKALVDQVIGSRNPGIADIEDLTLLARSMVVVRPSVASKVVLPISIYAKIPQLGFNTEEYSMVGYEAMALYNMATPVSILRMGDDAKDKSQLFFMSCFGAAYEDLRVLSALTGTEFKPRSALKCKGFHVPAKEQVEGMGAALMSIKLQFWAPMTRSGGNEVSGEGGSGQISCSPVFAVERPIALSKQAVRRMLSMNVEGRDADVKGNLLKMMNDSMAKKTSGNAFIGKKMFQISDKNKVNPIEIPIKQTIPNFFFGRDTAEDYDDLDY

The first test addresses influenza A virus minigenome (PB2, PB1, PA, NP proteins) (UniProt P04665). In kind it is cell-based. The note with it: read-out: RNP_ Hubei B IC50.
In the case of `COCCOC[C@@]1(C)COC[C@@H](COc2ccc(-c3cc(C(N)=O)c(=O)[nH]c3C(F)(F)F)cc2)O1` [Example 430, 5-(4-(((2S,6S)-6-((2-methoxyethoxy)methyl)-6-methyl-1,4-dioxan-2-yl)methoxy)phenyl)-2-oxo-6-(trifluoromethyl)-1,2-dihydropyridine-3-carboxamide], the IC50 is 5 to 10 µM.
The same measure, in the same setting: for `NC(=O)c1cc(-c2ccc(OCC3C[C@@H]4CC[C@H]3O4)cc2)c(C(F)(F)F)[nH]c1=O` (single isomer, unassigned) [Example 313, 5-(4-((7-oxabicyclo[2.2.1]heptan-2-yl)methoxy)phenyl)-2-oxo-6-(trifluoromethyl)-1,2-dihydropyridine-3-carboxamide] the value was 10 to 25 µM; for `Cc1onc(-c2ccncc2)c1COc1ccc(-c2cc(C(N)=O)c(=O)[nH]c2C(F)(F)F)cc1` [Example 270, 5-(4-((5-methyl-3-(pyridin-4-yl)isoxazol-4-yl)methoxy)phenyl)-2-oxo-6-(trifluoromethyl)-1,2-dihydropyridine-3-carboxamide], 25 to 50 µM.
Same read-out and setting: for `NC(=O)c1cc(-c2ccc(OCC3COCC(COC(F)(F)F)O3)cc2)c(C(F)(F)F)[nH]c1=O` (single isomer, unassigned) [Example 373, 2-oxo-5-(4-((6-((trifluoromethoxy)methyl)-1,4-dioxan-2-yl)methoxy)phenyl)-6-(trifluoromethyl)-1,2-dihydropyridine-3-carboxamide] the value was 5 to 10 µM; for `Cc1nnsc1COc1ccc(-c2cc(C(N)=O)c(=O)[nH]c2C(F)(F)F)cc1` [Example 273, 5-(4-((4-methyl-1,2,3-thiadiazol-5-yl)methoxy)phenyl)-2-oxo-6-(trifluoromethyl)-1,2-dihydropyridine-3-carboxamide], 10 to 25 µM; for `COC[C@@]1(C)COC[C@H](COc2ccc(-c3cc(C(N)=O)c(=O)[nH]c3C(F)(F)F)cc2)O1` [Example 408, 5-(4-(((2R,6S)-6-(methoxymethyl)-6-methyl-1,4-dioxan-2-yl)methoxy)phenyl)-2-oxo-6-(trifluoromethyl)-1,2-dihydropyridine-3-carboxamide], 5 to 10 µM.
On the same count and under the same terms, for `C[C@]12O[C@H](COc3ccc(-c4cc(C(N)=O)c(=O)[nH]c4C(F)(F)F)cc3)CO[C@H]1C2(F)F` [Example 394, 5-(4-(((1S,3S,6R)-7,7-difluoro-1-methyl-2,5-dioxabicyclo[4.1.0]heptan-3-yl)methoxy)phenyl)-2-oxo-6-(trifluoromethyl)-1,2-dihydropyridine-3-carboxamide] the value was 5 to 10 µM; for `NC(=O)c1cc(-c2ccc(OC[C@H]3CO[C@H]4[C@@H](O3)C4(F)F)cc2)c(C(F)(F)F)[nH]c1=O` [Example 391, 5-(4-((trans-7,7-difluoro-2,5-dioxabicyclo[4.1.0]heptan-3-yl)methoxy)phenyl)-2-oxo-6-(trifluoromethyl)-1,2-dihydropyridine-3-carboxamide], 1 to 5 µM; for `NC(=O)c1cc(-c2ccc(OCC3COC(C(F)F)CO3)cc2)c(C(F)(F)F)[nH]c1=O` (single isomer, unassigned) [Example 345, 5-(4-((5-(difluoromethyl)-1,4-dioxan-2-yl)methoxy)phenyl)-2-oxo-6-(trifluoromethyl)-1,2-dihydropyridine-3-carboxamide], 5 to 10 µM.
In the case of `NC(=O)c1cc(-c2ccc(OCC3COC(CF)CO3)cc2)c(C(F)(F)F)[nH]c1=O` (single isomer, unassigned) [Example 343, 5-(4-((5-(fluoromethyl)-1,4-dioxan-2-yl)methoxy)phenyl)-2-oxo-6-(trifluoromethyl)-1,2-dihydropyridine-3-carboxamide], the IC50 lay within 5 to 10 µM.
As for `COCC1OC(COc2ccc(-c3cc(C(N)=O)c(=O)[nH]c3C(F)(F)F)cc2)COC1C` (single isomer, unassigned) [Example 393, 5-(4-((6-(methoxymethyl)-5-methyl-1,4-dioxan-2-yl)methoxy)phenyl)-2-oxo-6-(trifluoromethyl)-1,2-dihydropyridine-3-carboxamide], the IC50 was 5 to 10 µM.
On the same count and under the same terms, for `NC(=O)c1cc(-c2ccc(OCc3cc(C4CC4)on3)cc2)c(C(F)(F)F)[nH]c1=O` [Example 268, 5-(4-((5-cyclopropylisoxazol-3-yl)methoxy)phenyl)-2-oxo-6-(trifluoromethyl)-1,2-dihydropyridine-3-carboxamide] the value was 25 to 50 µM; for `NC(=O)c1cc(-c2ccc(OCC3COCC(COCC4(F)CC4)O3)cc2)c(C(F)(F)F)[nH]c1=O` (single isomer, unassigned) [Example 365, 5-(4-((6-(((1-fluorocyclopropyl)methoxy)methyl)-1,4-dioxan-2-yl)methoxy)phenyl)-2-oxo-6-(trifluoromethyl)-1,2-dihydropyridine-3-carboxamide], 5 to 10 µM; for `C[C@@]1(CF)COC[C@@H](COc2ccc(-c3cc(C(N)=O)c(=O)[nH]c3C(F)(F)F)cc2)O1` [Example 419, 5-(4-(((2S,6S)-6-(fluoromethyl)-6-methyl-1,4-dioxan-2-yl)methoxy)phenyl)-2-oxo-6-(trifluoromethyl)-1,2-dihydropyridine-3-carboxamide], 5 to 10 µM.
The same measure, in the same setting: for `Cn1ncc2c1COCC2COc1ccc(-c2cc(C(N)=O)c(=O)[nH]c2C(F)(F)F)cc1` (single isomer, unassigned) [Example 290, 5-(4-((1-methyl-1,4,5,7-tetrahydropyrano[3,4-c]pyrazol-4-yl)methoxy)phenyl)-2-oxo-6-(trifluoromethyl)-1,2-dihydropyridine-3-carboxamide] the value was 5 to 10 µM; for `CC1CN(C(=O)OC(C)(C)C)CC1COc1ccc(-c2cc(C(N)=O)c(=O)[nH]c2C(F)(F)F)cc1` (centres unmarked) [Example 303, Tert-butyl 3-((4-(5-carbamoyl-6-oxo-2-(trifluoromethyl)-1,6-dihydropyridin-3-yl)phenoxy)methyl)-4-methylpyrrolidine-1-carboxylate], 10 to 25 µM.
The same measure, in the same setting: for `COC[C@@H]1COC[C@@H](COc2ccc(-c3cc(C(N)=O)c(=O)[nH]c3C(F)(F)F)cc2)O1` [Example 399, 5-(4-(((2S,6R)-6-(methoxymethyl)-1,4-dioxan-2-yl)methoxy)phenyl)-2-oxo-6-(trifluoromethyl)-1,2-dihydropyridine-3-carboxamide] the value was 5 to 10 µM; for `NC(=O)c1cc(-c2ccc(OCC3COCCOC3)cc2)c(C(F)(F)F)[nH]c1=O` [Example 320, 5-(4-((1,4-dioxepan-6-yl)methoxy)phenyl)-2-oxo-6-(trifluoromethyl)-1,2-dihydropyridine-3-carboxamide], 5 to 10 µM.
As for `NC(=O)c1cc(-c2ccc(OCC3COCC(COCC4CC4)O3)cc2)c(C(F)(F)F)[nH]c1=O` (single isomer, unassigned) [Example 362, 5-(4-((6-((cyclopropylmethoxy)methyl)-1,4-dioxan-2-yl)methoxy)phenyl)-2-oxo-6-(trifluoromethyl)-1,2-dihydropyridine-3-carboxamide], the IC50 lay in the range of 5 to 10 µM.
The same measure, in the same setting: for `Cn1ncc2c1COCC2COc1ccc(-c2cc(C(N)=O)c(=O)[nH]c2C(F)(F)F)cc1` (single isomer, unassigned) [Example 289, 5-(4-((1-methyl-1,4,5,7-tetrahydropyrano[3,4-c]pyrazol-4-yl)methoxy)phenyl)-2-oxo-6-(trifluoromethyl)-1,2-dihydropyridine-3-carboxamide] the value was 5 to 10 µM.
Regarding `NC(=O)c1cc(-c2ccc(OCC3CCCCO3)cc2)c(C(F)(F)F)[nH]c1=O` (centres unmarked) [Example 236, 2-oxo-5-(4-((tetrahydro-2H-pyran-2-yl)methoxy)phenyl)-6-(trifluoromethyl)-1,2-dihydropyridine-3-carboxamide], the IC50 was 5 to 10 µM.
On the same count and under the same terms, for `NC(=O)c1cc(-c2ccc(OCC3COC(CF)CO3)cc2)c(C(F)(F)F)[nH]c1=O` (single isomer, unassigned) [Example 342, 5-(4-((5-(fluoromethyl)-1,4-dioxan-2-yl)methoxy)phenyl)-2-oxo-6-(trifluoromethyl)-1,2-dihydropyridine-3-carboxamide] the value was 5 to 10 µM; for `C[C@H]1COC[C@@H](COc2ccc(-c3cc(C(N)=O)c(=O)[nH]c3C(F)(F)F)cc2)O1` [Example 330, 5-(4-(((2S,6S)-6-methyl-1,4-dioxan-2-yl)methoxy)phenyl)-2-oxo-6-(trifluoromethyl)-1,2-dihydropyridine-3-carboxamide], 25 to 50 µM.
The same measure, in the same setting: for `CC(C)[C@H]1COCC(COc2ccc(-c3cc(C(N)=O)c(=O)[nH]c3C(F)(F)F)cc2)N1C` (stereo partly drawn) [Example 211, 5-(4-(((5S)-5-isopropyl-4-methylmorpholin-3-yl)methoxy)phenyl)-2-oxo-6-(trifluoromethyl)-1,2-dihydropyridine-3-carboxamide] the value was 1 to 5 µM; for `CCn1cc(COc2ccc(-c3cc(C(N)=O)c(=O)[nH]c3C(F)(F)F)cc2)cn1` [Example 222, 5-(4-((1-ethyl-1H-pyrazol-4-yl)methoxy)phenyl)-2-oxo-6-(trifluoromethyl)-1,2-dihydropyridine-3-carboxamide], 25 to 50 µM.

Staying with this test, now noted: read-out: RNP_Hubei B.
As to `Cn1nccc1COc1ccc(-c2cc(C(N)=O)c(=O)[nH]c2C(F)(F)F)cc1` [Example 126, 5-(4-((1-methyl-1H-pyrazol-5-yl)methoxy)phenyl)-2-oxo-6-(trifluoromethyl)-1,2-dihydropyridine-3-carboxamide], the IC50 was 25 to 50 µM.
The same measure, in the same setting: for `CC1COCCN1Cc1ccc(-c2cc(C(N)=O)c(=O)[nH]c2C(F)(F)F)cc1` (centres unmarked) [Example 27, 5-(4-((3-methylmorpholino)methyl)phenyl)-2-oxo-6-(trifluoromethyl)-1,2-dihydropyridine-3-carboxamide] the value was 10 to 25 µM.
Same read-out and setting: for `NC(=O)c1cc(-c2cccc(O)c2)c(C(F)(F)F)[nH]c1=O` [Example 9, 5-(3-hydroxyphenyl)-2-oxo-6-(trifluoromethyl)-1,2-dihydropyridine-3-carboxamide] the value was 25 to 50 µM; for `NC(=O)c1cc(-c2ccc(CN3CCCCC3)cc2)c(C(F)(F)F)[nH]c1=O` [Example 44, 2-oxo-5-(4-(piperidin-1-ylmethyl)phenyl)-6-(trifluoromethyl)-1,2-dihydropyridine-3-carboxamide], 25 to 50 µM.
